Reference: patent US10233157B2, “SIK inhibitor for use in a method of treating an inflammatory and/or immune disorder” (Dana-Farber Cancer Institute, Inc., priority 2012, dated 2019)
“Also recorded” adds a separate entry of the source.

Legend:
NUAK isoforms = conditions: previously reported; cited from earlier work
IKK-related kinases = conditions: previously reported; cited from earlier work
MARK isoforms = conditions: previously reported; cited from earlier work
AMPK-related kinases = format: biochemical; conditions: members of the AMPK subfamily other than SIKs
Procedure: (§1) Recombinant SIK1, SIK2, SIK3 were expressed as GST-fusion proteins in HEK293 cells and purified on a glutathione-Sepharose column. […] FLAG-CRTC3 was immunoprecipitated using anti-FLAG M2 agarose, washed in kinase buffer (50 mM Tris/HCl pH 7.4, 10 mM Mg acetate, 0.1 mM EGTA, 2 mM DTT) and reactions initiated by adding 4 U/ml recombinant kinase with 0.1 mM ATP (specific activity 3000 cpm/pmol). Phosphorylation of CRTC3 was monitored by autoradiography as well as immunoblotting using phosphospecific antibodies raised against Ser162, Ser329 and Ser370. […] Kinase profiling was performed as previously described (7) and performed by the International Centre for Kinase Profiling (www.kinase-screen.mrc.ac.uk).

SIK isoforms = experiment: Kinase assays, SIK isoforms; format: biochemical; conditions: in vitro
[1] = system: LPS-stimulated macrophages; experiment: Cytokine secretion in TLR-stimulated bone-marrow derived macrophages; format: cell-based, mouse
Procedure: Bone-marrow derived macrophages were differentiated for 7 days in DMEM supplemented with 5 ng/ml recombinant M-CSF (R&D systems), 2 mM glutamine, 10% foetal calf serum, penicillin and streptomycin.
Following stimulation with ligands, the cell culture medium was removed, clarified by centrifugation for 10 min at 14000×g and the concentration of TNFα, IL-6, IL-10, IL-12p40, and RANTES were measured using the Bio-Plex Pro Assay system from Bio-Rad. IFNβ was measured using an ELISA kit from R&D Systems according to the manufacturers' instructions.
RNA was extracted using the RNeasy Micro Kit (Qiagen). cDNA was generated using the iScript cDNA synthesis kit and quantified by qPCR using the SsoFast EvaGreen Supermix (Bio-Rad Laboratories). […] Fold-induction for each gene was reported relative to untreated control cells, which was set to 1. The concentrations of TNFα, IL-6, IL-10, IL-12p40, and RANTES in culture supernatants were measured using the Bio-Plex Pro Assay system from Bio-Rad. Further details in supplementary information.
Following stimulation with ligands, the cell culture medium was removed, clarified by centrifugation for 10 min at 14000×g and the concentration of TNFα, IL-6, IL-10, IL-12p40 and RANTES were measured using the Bio-Plex Pro Assay system from Bio-Rad. IL-1ra and IFNβ were measured using ELISA kits from R&D Systems.

[2] = system: TLR-stimulated macrophages; experiment: qPCR of CREB-dependent gene mRNA in TLR-stimulated macrophages; format: cell-based, mouse; conditions: for Nurr77 mRNA: LPS-stimulated macrophages; for IL-10 mRNA: TLR/LPS-stimulated macrophages
Procedure: Bone-marrow derived macrophages were differentiated for 7 days in DMEM supplemented with 5 ng/ml recombinant M-CSF (R&D systems), 2 mM glutamine, 10% foetal calf serum, penicillin and streptomycin. […]
mRNA was extracted from macrophages using the RNeasy Micro Kit following the manufacturers' instructions (Qiagen). cDNA was generated from 1 μg of total RNA using the iScript cDNA synthesis kit and quantified by qPCR using the SsoFast EvaGreen Supermix on a CFX96 real time system (Bio-Rad Laboratories). The relative expression of each gene was calculated from Ct values using the Pfaffl method^30 and was normalized against the mRNA levels of 18S RNA. The following primers were used: IL-10-F, […]; IL-10-R, […]; c-Fos-F, […]; c-Fos-R, […]; nurr1-F, […]; nurr1-R, […]; nurr77-F, […]; nurr77-R, […]; 18S-F, […]; 18S-R, […]; IL-1ra-F, […]; IL-1ra-R, […]; SPHK1-F, […]; SPHK1-R, […]; LIGHT-F, […]; LIGHT-R, […]; ArgI-F, […]; ArgI-R, […]; IFN-F, […]; IFNγ-R, […].
[…]. Biochem J 434:93-104) using the indicated antibodies. RNA was extracted using the RNeasy Micro Kit (Qiagen). cDNA was generated using the iScript cDNA synthesis kit and quantified by qPCR using the SsoFast EvaGreen Supermix (Bio-Rad Laboratories). The relative expression of each gene was calculated from Ct values using the Pfaffl method (Pfaffl M W (2001) A new mathematical model for relative quantification in real-time RT-PCR. Nucleic Acids Res 29:e45) and was normalized against the mRNA levels of 18S or GAPDH RNA. Fold-induction for each gene was reported relative to untreated control cells, which was set to 1. The concentrations of TNFα, IL-6, IL-10, IL-12p40, and RANTES in culture supernatants were measured using the Bio-Plex Pro Assay system from Bio-Rad. Further details in supplementary information.
(§2) mRNA was extracted from cells using the RNeasy Micro Kit following the manufacturers' instructions (Qiagen). cDNA was generated from 1 μg of total RNA using the iScript cDNA synthesis kit and quantified by qPCR using the SsoFast EvaGreen Supermix on a CFX96 real time system (Bio-Rad Laboratories). The relative expression of each gene was calculated from Ct values using the Pfaffl method (5) and was normalized against the mRNA levels of 18S RNA or GAPDH. Results are reported relative to untreated control cells, which was set to 1. The following primers were used: […]

[3] = system: protein kinases that possess a threonine residue at the gatekeeper site (Src, Lck, Yes, BTK, FGF and Ephrin receptors); experiment: Kinase profiling, kinases with threonine at the gatekeeper site; format: biochemical; conditions: kinase panel; 1 μM KIN112, 0.1 μM HG-9-91-01
Procedure: as §1

LKB1−/− cells = experiment: CREB-dependent gene transcription in IL-1 stimulated LKB1+/+ and LKB1−/− MEFs; format: cell-based, mouse
LPS-stimulated BMDMs = experiment: Expression of macrophage markers in LPS-stimulated BMDMs (qPCR); format: cell-based, mouse
Procedure: FIGS. 10A to 10E. Inhibition of the LKB1-SIK-CRTC3-IL10 signaling axis drives the expression of markers of regulatory macrophages. (FIG. 10A) Effect of SIK inhibitors on the LPS-stimulated expression of LIGHT, SPHK1, Arg1 and IL-1ra (n=4, mean±SD). […] (FIG. 10C) Elevated expression of markers of regulatory macrophage in LKB1−/− macrophages. BMDMs were generated from LysM-Cre/LKB1+/+ and LysM-Cre/LKB1flox/flox mice and stimulated with 100 ng/ml LPS (mean±SD, n=3). (FIG. 10D) CRTC3 is required for the induction of markers of regulatory macrophages. […] LIGHT and SPHK1 mRNA was measured at 2 h and Arg1 at 8 h post-LPS stimulation (mean±SD, n=4). […] The experiment was carried out as in (FIG. 10D) except that BMDMs were generated from IL-10+/+ and IL-10−/− mice (mean±SD, n=4).
as §2

LPS-injected mice = experiment: Cytokine levels in serum of LPS-challenged mice; format: in vivo, mouse
Procedure: C57BL/6 mice (8-12 week old male mice) were injected with vehicle control or 0-30 mg/kg of MRT68771. After 30 min, LPS was introduced by intraperitoneal injection (3.5 mg/kg). One hour later, the mice were sacrificed and the concentrations of TNFα, IL-10 and IFNβ in the sera were measured as described above.

[4] = Drug metabolism and pharmacokinetic properties; conditions: compared with MRT67307
CRTC3 = CRTC3 nuclear translocation (immunofluorescence, live imaging); format: cell-based; conditions: WT CRTC3
Description: FIGS. 15A to 15C. SIK inhibitors induce the dephosphorylation of CRTC3 at Ser62, Ser162, Ser329 and Ser370 and its translocation to the nucleus. (FIG. 15A) HEK293 cells were transfected with FLAG-CRTC2, FLAG-CRTC3 or FLG-CRTC3[S162A]. Aliquots of the cell extracts were subjected to SDS-PAGE and immunoblotting using an antibody that recognizes CRTC2 phosphorylated at Ser171. […] (FIG. 15B) HEK293 cells were transfected with FLAG-CRTC3, FLAG-CRTC3[S62A/S162A/S329A/S370A] (termed CRTC3-4A) or with empty vector (FLAG-ev). […]. (FIG. 15C) Inhibition of SIKs promotes the translocation of endogenous CRTC3 to the nucleus. […].
RAW264.7 cells were grown on glass coverslips and treated with inhibitors for 1 h. Cells were then fixed for 10 min in 3.7% paraformaldehyde, permeabilized for 5 min using 0.1% Triton X-100 in PBS and blocked for 45 min using 3% BSA in PBS. Cells were stained with anti-CRTC3 (Abcam 1:200) and anti-α-tubulin (Santa Cruz 1:500) followed by anti-rabbit-alexa488 and anti-mouse-alexa594 (Invitrogen 1:500), respectively. Antibodies were diluted in blocking buffer and incubated with the cells for 45 min. […] Images were recorded every 30 s for 1.5 min prior to the addition of drug after which cells were imaged for a further 60 min.

O=C(NCCCNc1nc(Nc2cccc(NC(=O)N3CCCC3)c2)ncc1I)c1cccs1 [BX795]
inhibition of NUAK1 (NUAK isoforms): potent inhibitor | inhibition of IKK-related kinases (IKK-related kinases): potent inhibitor | inhibition of MARKs (MARK isoforms): potent inhibitor

COc1ccc(N(C(=O)Oc2c(C)cccc2C)c2ccnc(Nc3ccc(N4CCN(C)CC4)cc3)n2)c(OC)c1 [KIN112]
inhibition of AMPK-related kinases (AMPK-related kinases): did not inhibit any other member | inhibition of SIKs (SIK isoforms): potent inhibitor; also recorded: potently inhibited; also recorded: possess SIK inhibitory activity | IL-10 secretion ([1]; LPS-stimulated macrophages): stimulate IL-10 secretion in a dose dependent manner; also recorded: increased | pro-inflammatory cytokine secretion ([1]; LPS-stimulated macrophages): greatly suppressed | IL-10 secretion ([1]; in response to TLR ligands): high levels of IL-10 | IL-12p40 secretion ([1]; in response to TLR ligands): low levels of IL-12p40 | Nurr77 mRNA [2]: increased | IL-10 mRNA [2]: increased | inhibition of protein kinases with a threonine residue at the gatekeeper site [3]: potent inhibitor; also recorded: inhibited | CREB-dependent gene transcription (LKB1−/− cells; LKB1+/+ cells): enhanced | transcription of Nurr1 and Nurr77 (LKB1−/− cells; LKB1−/− cells): only be increased to a small extent | IL-1ra mRNA (LPS-stimulated BMDMs; LPS-stimulated macrophages): greatly increased | mRNAs of regulatory macrophage markers (arginase-1, SPHK1, LIGHT) (LPS-stimulated BMDMs; TLR/LPS-stimulated macrophages): stimulating the production | switch of macrophage programme from classically activated towards regulatory phenotype (LPS-stimulated BMDMs; quiescent macrophages): switched their maturation programme from the classically activated route towards the regulatory phenotype

Cn1cc(-c2ccc(Nc3ncc(C4CC4)c(NCCCNC(=O)C4CCC4)n3)cc2)cn1 [MRT68771]
inhibition of SIKs (SIK isoforms): possess SIK inhibitory activity | IL-10 in serum (LPS-injected mice): elevated levels of IL-10 | pro-inflammatory cytokines in serum (LPS-injected mice): reduced levels of pro-inflammatory cytokines | IL-10 secretion ([1]; LPS-stimulated macrophages): elevated levels of IL-10 | pro-inflammatory cytokine secretion ([1]; LPS-stimulated macrophages): reduced levels of pro-inflammatory cytokines | drug metabolism and pharmacokinetic properties [4]: improved drug metabolism and pharmacokinetic properties

CC1(C)C(=O)N([C@H]2CCc3c(O)cccc32)c2nc(Nc3cccc(CN4CCCC4)c3)ncc21 [MRT199665, 7-[(1S)-4-hydroxy-2,3-dihydro-1H-inden-1-yl]-5,5-dimethyl-2-{[3-(pyrrolidin-1-ylmethyl)phenyl]amino}-5,7-dihydro-6H-pyrrolo[2,3-d]pyrimidin-6-one]
CRTC3 nuclear translocation (CRTC3): translocates to the nucleus | IL-10 secretion ([1]; LPS-stimulated macrophages): stimulate IL-10 secretion in a dose dependent manner; also recorded: increased | Nurr77 mRNA [2]: increased | IL-10 mRNA [2]: increased

B1: IL-4: Murine IL-4 from Peprotech, control in macrophage marker experiments (protein, UniProt P07750 21-140, looked up)
Interleukin-4: HIHGCDKNHLREIIGILNEVTGEGTPCTEMDVPNVLTATKNTTESELVCRASKVLRIFYLKHGKTPCLKKNSSVLMELQRLFRAFRCLDSSISCTMNESKSTSLKDFLESLKSIMQMDYS
expression of FIZZ, Ym1 or Mgl2 (wound-healing M2a markers) (LPS-stimulated BMDMs): induced the expression | expression of LIGHT or SPHK1 (LPS-stimulated BMDMs; control experiments): not LIGHT or SPHK1
